Experimental data published in ChEMBL document CHEMBL4385666, “Exploring hydroxamic acid inhibitors of HDAC1 and HDAC2 using small molecule tools and molecular or homology modelling” (Bioorg Med Chem Lett, 2019).

Assays:
[1] = target: Class 1 histone deacetylase (Homo sapiens, UniProt Q13547+O15379+Q92769+Q9BY41); assay: Inhibition Class 1 histone deacetylase in human HeLa nuclear extracts using Fluor-de- Lys-green substrate by fluorescence assay; type: cell-free
Histone deacetylase 1 = Histone deacetylase 1 (Homo sapiens, UniProt Q13547); assay: Inhibition of human recombinant HDAC1 pre-incubated for 30 mins before substrate addition and measured after 30 mins by fluorescence based assay
Chain of Histone deacetylase 1 (Q13547 whole entry): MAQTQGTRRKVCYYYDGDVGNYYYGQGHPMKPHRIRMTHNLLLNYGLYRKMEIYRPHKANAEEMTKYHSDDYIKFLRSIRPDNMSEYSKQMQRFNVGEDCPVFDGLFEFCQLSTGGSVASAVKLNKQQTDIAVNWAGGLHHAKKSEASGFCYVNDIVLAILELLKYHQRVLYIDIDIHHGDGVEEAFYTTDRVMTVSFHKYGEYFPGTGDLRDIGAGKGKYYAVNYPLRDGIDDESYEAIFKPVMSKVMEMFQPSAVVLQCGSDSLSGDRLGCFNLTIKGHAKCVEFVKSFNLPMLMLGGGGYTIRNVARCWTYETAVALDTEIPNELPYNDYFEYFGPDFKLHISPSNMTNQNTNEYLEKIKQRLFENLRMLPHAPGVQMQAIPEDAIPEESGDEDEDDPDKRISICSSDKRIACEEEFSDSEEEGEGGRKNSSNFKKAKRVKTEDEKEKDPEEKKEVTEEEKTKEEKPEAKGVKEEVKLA

Histone deacetylase 2 = Histone deacetylase 2 (Homo sapiens, UniProt Q92769); assay: Inhibition of human recombinant HDAC2 pre-incubated for 30 mins before substrate addition and measured after 30 mins by fluorescence based assay
Chain of Histone deacetylase 2 (Q92769 whole entry): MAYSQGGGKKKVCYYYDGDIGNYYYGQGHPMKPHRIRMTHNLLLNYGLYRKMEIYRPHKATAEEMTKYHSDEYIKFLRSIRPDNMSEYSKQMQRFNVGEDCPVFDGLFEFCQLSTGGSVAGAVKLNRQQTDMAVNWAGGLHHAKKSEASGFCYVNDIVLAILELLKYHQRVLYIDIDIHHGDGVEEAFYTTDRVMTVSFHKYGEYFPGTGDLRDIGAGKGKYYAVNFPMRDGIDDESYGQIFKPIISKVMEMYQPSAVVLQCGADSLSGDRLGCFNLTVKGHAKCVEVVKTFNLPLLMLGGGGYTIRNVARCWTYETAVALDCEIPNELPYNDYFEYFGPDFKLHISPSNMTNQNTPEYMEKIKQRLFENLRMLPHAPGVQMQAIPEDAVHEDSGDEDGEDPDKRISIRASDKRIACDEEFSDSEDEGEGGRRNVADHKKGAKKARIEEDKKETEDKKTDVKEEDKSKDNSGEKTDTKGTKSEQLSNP

SMILES	IC50 [1]	IC50 (Histone deacetylase 1)	IC50 (Histone deacetylase 2)
COc1ccccc1CNCc1ccc(/C=C/C(=O)NO)cc1	278 nM	610 nM	1490 nM
COc1ccc(OC)c(CNCc2ccc(/C=C/C(=O)NO)cc2)c1	292 nM	620 nM	1750 nM
COc1cccc(OC)c1CNCc1ccc(/C=C/C(=O)NO)cc1	235 nM	636 nM	1080 nM
COc1ccc(CNCc2ccc(/C=C/C(=O)NO)cc2)cc1OC	371 nM	1260 nM	1890 nM
COc1ccc(CNCc2ccc(/C=C/C(=O)NO)cc2)cc1	195 nM	381 nM	926 nM
COc1cccc(CNCc2ccc(/C=C/C(=O)NO)cc2)c1OC	296 nM	602 nM	950 nM
COc1cc(CNCc2ccc(/C=C/C(=O)NO)cc2)cc(OC)c1	415 nM	837 nM	1270 nM
COc1ccc(CNCc2ccc(/C=C/C(=O)NO)cc2)c(OC)c1	258 nM	449 nM	994 nM
COc1cccc(CNCc2ccc(/C=C/C(=O)NO)cc2)c1	420 nM	463 nM	819 nM
O=C(/C=C/c1ccc(CNCc2ccccc2)cc1)NO	370 nM		
